The structures appear in SMILES notation.

For assay [1], the system named is Beet Armyworm (Spodoptera exigua) ("BAW"). Nature of the assay: Bioassay on beet armyworm (BAW), 128-well diet tray assay. The class given is in vivo. The settings on record: Table ABC (FB), activity rating class, read-out: BAW (Biological Results, Insect species). How it is done: (§1) Certain molecules disclosed in this document were tested against BAW and CEW using procedures described in the following examples. In the reporting of the results, the “BAW & CL Rating Table” was used (See Table Section). BIOASSAYS ON BAW
Bioassays on BAW were conducted using a 128-well diet tray assay. one to five second instar BAW larvae were placed in each well (3 mL) of the diet tray that had been previously filled with 1 mL of artificial diet to which 50 μg/cm^2 of the test compound (dissolved in 50 μL of 90:10 acetone-water mixture) had been applied (to each of eight wells) and then allowed to dry. Trays were covered with a clear self-adhesive cover and held at 25° C., 14:10 light-dark for five to seven days. Percent mortality was recorded for the larvae in each well; activity in the eight wells was then averaged. The results are indicated in the table entitled “Table ABC: Biological Results” (See Table Section).

Assay [2] deals with Cabbage Looper (Trichoplusia ni) ("CL"). Nature of the assay: Bioassay on cabbage looper (CL), 128-well diet tray assay. The settings on record: Table ABC (FB), activity rating class, read-out: CL (Biological Results, Insect species). The class given is in vivo. Here is the method: as §1
Bioassays on CL were conducted using a 128-well diet tray assay. one to five second instar CL larvae were placed in each well (3 mL) of the diet tray that had been previously filled with 1 mL of artificial diet to which 50 μg/cm^2 of the test compound (dissolved in 50 μL of 90:10 acetone-water mixture) had been applied (to each of eight wells) and then allowed to dry. Trays were covered with a clear self-adhesive cover and held at 25° C., 14:10 light-dark for five to seven days. Percent mortality was recorded for the larvae in each well; activity in the eight wells was then averaged. The results are indicated in the table entitled “Table ABC: Biological Results” (See Table Section).

On to `COc1ccc(C(C)C)c(N2C(=O)CS/C2=N\C(=O)NCCc2ccc(-c3ncn(-c4ccc(OC(F)(F)F)cc4)n3)cc2C)c1` [FB4, (Z)-1-(3-(2-isopropyl-5-methoxyphenyl)-4-oxothiazolidin-2-ylidene)-3-(2-methyl-4-(1-(4-(trifluoromethoxy)phenyl)-1H-1,2,4-triazol-3-yl)phenethyl)urea], for which the pest or weed control at 50 µg/cm2 in assay [1] and in assay [2] was 50 to 100% in each case.
For the compound `CCc1ccccc1NC(=S)NC(=O)NCCc1ccc(-c2ncn(-c3ccc(OC(F)(F)F)cc3)n2)cc1C` [FB5, 1-[(2-ethylphenyl)carbamothioyl]-3-[2-[2-methyl-4-[1-[4-(trifluoromethoxy)phenyl]-1H-1,2,4-triazol-3-yl]phenyl]ethyl]urea], the pest or weed control at 50 µg/cm2 in assay [1] and in assay [2] was 50 to 100% each time.
With `CCc1ccccc1N1C(=O)CS/C1=N\C(=O)NCCc1ccc(-c2ncn(-c3ccc(OC(F)(F)F)cc3)n2)cc1C` [FB6, (Z)-1-(3-(2-ethylphenyl)-4-oxothiazolidin-2-ylidene)-3-(2-methyl-4-(1-(4-(trifluoromethoxy)phenyl)-1H-1,2,4-triazol-3-yl)phenethyl)urea], the pest or weed control at 50 µg/cm2 in assay [1] and in assay [2] was 50 to 100% in each case.
Consider `Cc1cc(-c2ncn(-c3ccc(OC(F)(F)F)cc3)n2)ccc1CCNC(=O)/N=C1\SCC(=O)N1c1cc(Cl)ccc1C(C)C` [FB7, (Z)-1-(3-(5-chloro-2-isopropylphenyl)-4-oxothiazolidin-2-ylidene)-3-(2-methyl-4-(1-(4-(trifluoromethoxy)phenyl)-1H-1,2,4-triazol-3-yl)phenethyl)urea], for which the pest or weed control at 50 µg/cm2 in assay [1] and in assay [2] was 50 to 100% each time.
Take `Cc1ccc(C(C)C)c(N2C(=O)CS/C2=N\C(=O)NCCc2ccc(-c3ncn(-c4ccc(OC(F)(F)F)cc4)n3)cc2F)c1` [FB8, (Z)-1-(2-fluoro-4-(1-(4-(trifluoromethoxy)phenyl)-1H-1,2,4-triazol-3-yl)phenethyl)-3-(3-(2-isopropyl-5-methylphenyl)-4-oxothiazolidin-2-ylidene)urea]: the pest or weed control at 50 µg/cm2 in assay [1] and in assay [2] was 50 to 100% in each case.
For the compound `COc1ccc(C(C)C)c(N2C(=O)CS/C2=N\C(=O)NCCc2ccc(-c3ncn(-c4ccc(OC(F)(F)F)cc4)n3)cc2F)c1` [FB9, (Z)-1-(2-fluoro-4-(1-(4-(trifluoromethoxy)phenyl)-1H-1,2,4-triazol-3-yl)phenethyl)-3-(3-(2-isopropyl-5-methoxyphenyl)-4-oxothiazolidin-2-ylidene)urea], the pest or weed control at 50 µg/cm2 in assay [1] and in assay [2] was 50 to 100% throughout.
Regarding `CCc1ccccc1-n1c(=O)n(CC)s/c1=N\C(=O)NCCc1ccc(-c2ncn(-c3ccc(OC(F)(F)F)cc3)n2)cc1` [FB10, (Z)-1-(2-ethyl-4-(2-ethylphenyl)-3-oxo-1,2,4-thiadiazolidin-5-ylidene)-3-(4-(1-(4-(trifluoromethoxy)phenyl)-1H-1,2,4-triazol-3-yl)phenethyl)urea], the pest or weed control at 50 µg/cm2 in assay [1] and in assay [2] was 50 to 100% each time.
With `CCn1s/c(=N\C(=O)NCCc2ccc(-c3ncn(-c4ccc(OC(F)(F)F)cc4)n3)cc2)n(-c2ccc(OC)cc2C(C)C)c1=O` [FB11, (Z)-1-(2-ethyl-4-(2-isopropyl-4-methoxyphenyl)-3-oxo-1,2,4-thiadiazolidin-5-ylidene)-3-(4-(1-(4-(trifluoromethoxy)phenyl)-1H-1,2,4-triazol-3-yl)phenethyl)urea], the pest or weed control at 50 µg/cm2 is 0 to 50% in assay [1] and 50 to 100% in assay [2].
`CCn1s/c(=N\C(=O)NCCc2ccc(-c3ncn(-c4ccc(OC(F)(F)F)cc4)n3)cc2)n(-c2cc(F)ccc2C(C)C)c1=O` [FB12, (Z)-1-(2-ethyl-4-(5-fluoro-2-isopropylphenyl)-3-oxo-1,2,4-thiadiazolidin-5-ylidene)-3-(4-(1-(4-(trifluoromethoxy)phenyl)-1H-1,2,4-triazol-3-yl)phenethyl)urea]: the pest or weed control at 50 µg/cm2 in assay [1] and in assay [2] was 50 to 100% in each case.

The record behind these values is patent publication US9783532B2, “Molecules having certain pesticidal utilities, and intermediates, compositions, and processes related thereto” (Dow AgroSciences LLC, priority 2013, dated 2017).
